# Measurements published in ChEMBL document CHEMBL5576067, “Synthesis and biological evaluation of novel 1,2,3,4-tetrahydro-β-carboline derivatives as potential antibacterial agents” (Bioorg Med Chem Lett, 2024).
# Active and inactive are the calls of the source. The rule behind the calls is not given here.
# Experiments:
# Staphylococcus aureus [1] = experiment: Antibacterial activity against methicillin resistant Staphylococcus aureus ATCC33591 infected in mouse model of abdominal infection assessed as reduction in mean bacterial load in blood at 5 mg/kg, ip treated for 24 hrs starting from 2 hrs post infection relative to control; assay type: functional; parameters: scale not given: the % may be the effect or the level left
# Staphylococcus aureus [2] = experiment: Antibacterial activity against methicillin resistant Staphylococcus aureus ATCC33591 assessed as reduction in viable bacterial count at 2 times MIC measured within 24 hrs by time kill assay relative to control; assay type: functional
# Staphylococcus aureus [3] = experiment: Antibacterial activity against methicillin resistant Staphylococcus aureus ATCC33591 infected in mouse model of abdominal infection assessed as reduction in mean bacterial load in blood at 10 mg/kg, ip treated for 24 hrs starting from 2 hrs post infection relative to control; assay type: functional; parameters: scale not given: the % may be the effect or the level left
# Staphylococcus aureus [4] = experiment: Ratio of MBC to MIC for Staphylococcus aureus ATCC25923; assay type: functional
# Enterococcus faecium = experiment: Antibacterial activity against vancomycin-resistant Enterococcus faecium ATCC 700221 assessed as inhibition of bacterial growth incubated for 24 hrs by broth microdilution method; assay type: functional
# Staphylococcus aureus [5] = experiment: Antibacterial activity against methicillin resistant Staphylococcus aureus ATCC33591 assessed as inhibition of bacterial growth incubated for 24 hrs by broth microdilution method; assay type: functional
# Staphylococcus aureus [6] = experiment: Antibacterial activity against methicillin resistant Staphylococcus aureus ATCC33591 assessed as eradication of viable bacteria at >8 times MIC measured after 24 hrs by time kill assay; assay type: functional, organism-based
# Staphylococcus aureus [7] = experiment: Bactericidal activity against methicillin resistant Staphylococcus aureus ATCC33591 assessed as inhibition of bacterial growth incubated for 24 hrs by resazurin dye based analysis; assay type: functional
# Staphylococcus aureus [8] = experiment: Bactericidal activity against Staphylococcus aureus ATCC25923 assessed as inhibition of bacterial growth incubated for 24 hrs by resazurin dye based analysis; assay type: functional
# Staphylococcus aureus [9] = experiment: Antibacterial activity against methicillin resistant Staphylococcus aureus ATCC33591 assessed as post antibiotic effect at 8 ug/ml measured after 2 hrs; assay type: functional; details: dose 8 µg/ml
# Staphylococcus aureus [10] = experiment: Antibacterial activity against methicillin resistant Staphylococcus aureus ATCC33591 assessed as post antibiotic effect at 16 ug/ml measured after 2 hrs; assay type: functional; details: dose 16 µg/ml
# Staphylococcus aureus [11] = experiment: Antibacterial activity against methicillin resistant Staphylococcus aureus ATCC33591 assessed as inhibition of bacterial growth at 1 times MIC incubated for 24 hrs by time kill assay; assay type: functional, organism-based
# Ralstonia solanacearum = experiment: Antibacterial activity against Ralstonia solanacearum assessed as inhibition of bacterial growth incubated for 24 hrs by broth microdilution method; assay type: functional
# Staphylococcus aureus [12] = experiment: Antibacterial activity against Staphylococcus aureus ATCC25923 assessed as inhibition of bacterial growth incubated for 24 hrs by broth microdilution method; assay type: functional
# Staphylococcus aureus [13] = experiment: Antibacterial activity against methicillin resistant Staphylococcus aureus ATCC33591 assessed as eradication of viable bacteria at >=4 times MIC measured within 24 hrs by time kill assay relative to control; assay type: functional
# Escherichia coli = experiment: Antibacterial activity against Escherichia coli ATCC25922 assessed as inhibition of bacterial growth incubated for 24 hrs by broth microdilution method; assay type: functional
# [14] = Cytotoxicity against human HepG2 cells assessed as cell viability at 32 to 64 ug/ml measured after 24 hrs by MTT assay; assay type: toxicity, cell-based; details: at 32 to 64 µg/mL, dose 32-64 µg/ml, read-out: Activity
# [15] = Cytotoxicity against human L02 cells assessed as cell viability at 32 to 64 ug/ml measured after 24 hrs by MTT assay; assay type: toxicity, cell-based; details: at 32 to 64 µg/mL, dose 32-64 µg/ml, read-out: Activity
# [16] = Antibacterial activity against Pseudomonas syringae pv. actinidiae assessed as inhibition of bacterial growth incubated for 24 hrs by broth microdilution method; assay type: functional
# Staphylococcus aureus [17] = experiment: Drug resistance, ratio of MIC for methicillin-resistant Staphylococcus aureus ATCC33591 after 18 passages to MIC for methicillin-resistant Staphylococcus aureus ATCC33591 after initial exposure; assay type: functional
# Staphylococcus aureus [18] = experiment: Drug resistance, ratio of MIC for methicillin-resistant Staphylococcus aureus ATCC33591 after 16 passages to MIC for methicillin-resistant Staphylococcus aureus ATCC33591 after initial exposure; assay type: functional
# Staphylococcus aureus [19] = experiment: Drug resistance, ratio of MIC for methicillin-resistant Staphylococcus aureus ATCC33591 after 19 passages to MIC for methicillin-resistant Staphylococcus aureus ATCC33591 after initial exposure; assay type: functional
compound,measurement,setting,value
O=C(Nc1ccc(C2NCCc3c2[nH]c2ccccc32)cc1)c1ccc(C(F)(F)F)cc1 (stereo unspecified),Activity,Staphylococcus aureus [1],9.8%
same,Activity,Staphylococcus aureus [2],87.7%
same,Activity,Staphylococcus aureus [3],26%
same,Ratio,Staphylococcus aureus [4],1
same,MIC,Enterococcus faecium,64 µg/mL
same,MIC,Staphylococcus aureus [5],4 µg/mL
same,Activity,Staphylococcus aureus [6],Active
same,MBC,Staphylococcus aureus [7],4 µg/mL
same,MBC,Staphylococcus aureus [8],4 µg/mL
same,PAE,Staphylococcus aureus [9],1.78 h
same,PAE,Staphylococcus aureus [10],2.63 h
same,Activity,Staphylococcus aureus [11],Active
same,MIC,Ralstonia solanacearum,4 µg/mL
same,MIC,Staphylococcus aureus [12],4 µg/mL
same,Activity,Staphylococcus aureus [13],94.3%
same,MIC,Escherichia coli,4 µg/mL
same,viability at 24 h,[14],> 95%
same,viability at 24 h,[15],> 95%
same,MIC,[16],16 µg/mL
same,Ratio,Staphylococcus aureus [17],<4
CO[C@H]1/C=C/O[C@@]2(C)Oc3c(C)c(O)c4c(O)c(c(/C=N/N5CCN(C)CC5)c(O)c4c3C2=O)NC(=O)/C(C)=C\C=C\[C@H](C)[C@H](O)[C@@H](C)[C@@H](O)[C@@H](C)[C@H](OC(C)=O)[C@@H]1C [RIFAMPIN],MIC,Staphylococcus aureus [5],0.25 µg/mL
same,MBC,Staphylococcus aureus [7],1 µg/mL
same,MBC,Staphylococcus aureus [8],2 µg/mL
same,Ratio,Staphylococcus aureus [18],256
same,Ratio,Staphylococcus aureus [19],1024
same,MIC,Staphylococcus aureus [12],0.25 µg/mL
